Reference: ChEMBL document CHEMBL1201862, “PubChem BioAssay data set” (2004)
Calls of active or inactive are those of the source.

Legend:
Nonstructural protein 1 = Nonstructural protein 1 (Influenza A virus, UniProt Q194T2); type: functional, Influenza A virus (A/California/07/2009(H1N1))
[1] = C. albicans growth with fluconazole, confirmation, fluorescence, retest (AID 2467); type: functional, cell-based
[2] = cytotoxicity toward NIH3T3 fibroblasts, dose response, counter-screen, cell-based, ATP luminescence, mouse fibroblasts (AID 2010); type: functional;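 also: cells exposed to compound for about 90 hours before reading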
[3] = inhibitors of intracellular T. cruzi replication, confirmation, NIH3T3 host cells, beta-gal luminescence (AID 2044); type: functional, cell-based;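 also: intracellular parasites grown in NIH/3T3 mouse fibroblasts as host cells; luminescent beta-galactosidase reporter signal from transgenic T. cruzi replicating inside host cells; inhibitors lower the luminescence signal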
[4] = NIH-3T3 fibroblast cytotoxicity, dose response, cytotoxicity control, cell-based, fluorescence, Alamar Blue, secondary assay (AID 2327); type: functional;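 also: NIH-3T3 mouse fibroblasts cultured with fluconazole at 8 µg/mL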
cells [5] = type: functional, cell-based
[6] = biological target: T1, Ubiquitin-conjugating enzyme E2 N (Homo sapiens, UniProt P61088); type: functional;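 also: Dose-response confirmation in a TR-FRET assay detecting UBC13-driven polyubiquitin chain formation, inhibition measured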
T1 sequence (P61088 whole entry): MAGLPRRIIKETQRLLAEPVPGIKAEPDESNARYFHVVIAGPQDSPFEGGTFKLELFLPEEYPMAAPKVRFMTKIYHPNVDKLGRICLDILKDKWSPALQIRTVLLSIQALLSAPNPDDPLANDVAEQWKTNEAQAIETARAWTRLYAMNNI

cells [7] = type: functional, cell-based; remark: listed apart in the source
Vero = experiment: cells; type: functional; details: Chlorocebus sabaeus
H4 = experiment: Luminescence Cell-Based Dose Response HTS to Identify Activators of 5'UTR Stem-Loop Driven Prion Protein mRNA Translation in H4 Neuroglioblastoma Cells. [Related pubchem assays: 1829 (Project Summary), 1814 (Primary HTS)]; type: functional; details: Homo sapiens
[8] = Luminescence Cell-Based Dose Response HTS to Identify Activators of Luciferase Translation or Activity in H4 […] Cells. [Related pubchem assays: 1829 (Project Summary), 1814 (Primary HTS)]; type: functional
[9] = Luminescence Cell-Based Dose Confirmation HTS to Identify Activators of 5'UTR Stem-Loop Driven Alpha-Synuclein mRNA Translation in H4 Neuroglioblastoma Cells. [Related pubchem assays: 1829 (Project Summary), 1814 (Primary HTS)]; type: functional
BJ [10] = experiment: cytotoxicity toward BJ-TERT fibroblasts, dose response, cell-based, RAS-independent, luminescence (AID 1933); type: functional; details: Homo sapiens
[11] = cytotoxicity toward DRD oncogenic fibroblasts, dose response, cell-based, non-viral oncogenic, luminescence (AID 1934); type: functional; details: Homo sapiens
BJ [12] = experiment: cells; type: functional, cell-based; details: Homo sapiens
BJ [13] = experiment: cytotoxicity toward BJ-TERT-LT-ST fibroblasts, dose response, cell-based, RAS-independent, luminescence (AID 1935); type: functional; details: Homo sapiens;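 also: BJ fibroblasts immortalized with TERT plus LT and ST oncogenes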
Genome polyprotein = Genome polyprotein (dengue virus type 2, UniProt P29990); experiment: Dengue-2 NS5 methyltransferase inhibitors, primary screen, biochemical, confirmation dose response (AID 588689); type: functional
[14] = biological target: T2, Histone-lysine N-methyltransferase NSD2 (Homo sapiens, UniProt O96028); type: biochemical
T2 sequence (O96028 whole entry): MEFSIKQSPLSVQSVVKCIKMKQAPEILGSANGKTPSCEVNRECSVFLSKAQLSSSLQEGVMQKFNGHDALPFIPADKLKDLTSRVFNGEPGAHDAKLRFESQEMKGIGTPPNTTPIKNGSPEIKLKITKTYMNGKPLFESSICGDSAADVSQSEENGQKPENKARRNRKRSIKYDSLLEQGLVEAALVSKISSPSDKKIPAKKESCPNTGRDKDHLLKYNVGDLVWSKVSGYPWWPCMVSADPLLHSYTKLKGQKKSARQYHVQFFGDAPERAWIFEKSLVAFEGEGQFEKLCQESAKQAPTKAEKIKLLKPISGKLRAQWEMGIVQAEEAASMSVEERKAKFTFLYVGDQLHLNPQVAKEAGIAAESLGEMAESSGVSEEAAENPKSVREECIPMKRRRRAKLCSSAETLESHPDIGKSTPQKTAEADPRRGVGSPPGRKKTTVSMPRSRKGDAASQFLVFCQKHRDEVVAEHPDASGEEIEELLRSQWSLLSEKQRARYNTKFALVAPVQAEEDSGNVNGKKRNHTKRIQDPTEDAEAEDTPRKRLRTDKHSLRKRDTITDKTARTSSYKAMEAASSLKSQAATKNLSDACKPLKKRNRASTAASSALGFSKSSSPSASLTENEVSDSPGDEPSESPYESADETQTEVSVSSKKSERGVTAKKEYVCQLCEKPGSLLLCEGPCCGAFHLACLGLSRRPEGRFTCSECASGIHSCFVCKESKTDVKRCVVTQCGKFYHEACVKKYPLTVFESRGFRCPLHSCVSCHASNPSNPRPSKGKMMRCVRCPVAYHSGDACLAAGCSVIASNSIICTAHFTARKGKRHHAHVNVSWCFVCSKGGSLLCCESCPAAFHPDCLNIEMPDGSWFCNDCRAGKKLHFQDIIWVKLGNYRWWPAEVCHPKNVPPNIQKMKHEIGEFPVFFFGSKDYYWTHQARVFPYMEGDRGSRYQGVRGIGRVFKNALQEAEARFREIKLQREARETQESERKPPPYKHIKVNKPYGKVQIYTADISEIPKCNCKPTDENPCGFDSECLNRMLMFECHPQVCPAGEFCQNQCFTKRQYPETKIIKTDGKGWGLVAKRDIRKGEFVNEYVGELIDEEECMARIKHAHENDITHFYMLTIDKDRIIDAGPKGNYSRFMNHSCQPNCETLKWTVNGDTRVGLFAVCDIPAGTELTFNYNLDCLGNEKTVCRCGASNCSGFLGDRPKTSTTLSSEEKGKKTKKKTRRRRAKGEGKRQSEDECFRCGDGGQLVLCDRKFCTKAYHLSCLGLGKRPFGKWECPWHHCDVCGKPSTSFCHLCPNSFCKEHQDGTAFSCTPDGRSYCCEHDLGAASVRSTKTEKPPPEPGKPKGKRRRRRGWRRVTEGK

[15] = inhibitors of firefly luciferase expression or activity, dose response, H4 neuroglioma cells, luminescence (AID 1990); type: functional, cell-based
[16] = inhibitors of SNCA 5'UTR-driven reporter translation, confirmation, H4 neuroglioma cells, luminescence (AID 1988); type: functional, cell-based
[17] = inhibitors of clade B AD8 Env fusion, dose response, cell-based, cherry-pick (AID 652062); type: functional;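 also: luciferase signal from cell-cell fusion driven by HIV-1 clade B AD8 Env; potency is for inhibitors of fusion seen as a drop in luminescence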
[18] = off-target signal loss in HeLa-CEM21 co-culture – HeLa F-luc CTL cells, cherry-picked, counter-screen for HIV-1 Env fusion inhibitor project, dose response (AID 652040); type: functional, cell-based;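 also: potency for signal decrease marking cytotoxic or nonspecific inhibition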
[19] = Luminescence Cell-Based Dose Response HTS to Identify Inhibitors of 5'UTR Stem-Loop Driven Prion Protein mRNA Translation in H4 Neuroglioblastoma Cells. [Related pubchem assays: 1827 (Project Summary), 1813 (Primary HTS)]; type: functional
[20] = ZM109 Env clade C HIV-1 fusion inhibitors, dose response, HeLa effector, CEM target cells, luciferase, cherry-pick (AID 652058); type: functional, cell-based
[21] = inhibitors of HIV Env-driven cell fusion, dose response, cherry-pick (AID 652057); type: functional, cell-based

Sequence of Nonstructural protein 1 (Q194T2 whole entry): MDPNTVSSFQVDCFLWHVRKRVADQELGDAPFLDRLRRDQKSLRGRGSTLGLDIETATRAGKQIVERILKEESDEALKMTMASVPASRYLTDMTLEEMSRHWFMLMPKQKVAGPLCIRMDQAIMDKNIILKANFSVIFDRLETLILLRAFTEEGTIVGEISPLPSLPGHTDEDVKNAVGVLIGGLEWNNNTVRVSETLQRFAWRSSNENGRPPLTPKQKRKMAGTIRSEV
Sequence of Genome polyprotein (P29990 2492-3391 limits assumed): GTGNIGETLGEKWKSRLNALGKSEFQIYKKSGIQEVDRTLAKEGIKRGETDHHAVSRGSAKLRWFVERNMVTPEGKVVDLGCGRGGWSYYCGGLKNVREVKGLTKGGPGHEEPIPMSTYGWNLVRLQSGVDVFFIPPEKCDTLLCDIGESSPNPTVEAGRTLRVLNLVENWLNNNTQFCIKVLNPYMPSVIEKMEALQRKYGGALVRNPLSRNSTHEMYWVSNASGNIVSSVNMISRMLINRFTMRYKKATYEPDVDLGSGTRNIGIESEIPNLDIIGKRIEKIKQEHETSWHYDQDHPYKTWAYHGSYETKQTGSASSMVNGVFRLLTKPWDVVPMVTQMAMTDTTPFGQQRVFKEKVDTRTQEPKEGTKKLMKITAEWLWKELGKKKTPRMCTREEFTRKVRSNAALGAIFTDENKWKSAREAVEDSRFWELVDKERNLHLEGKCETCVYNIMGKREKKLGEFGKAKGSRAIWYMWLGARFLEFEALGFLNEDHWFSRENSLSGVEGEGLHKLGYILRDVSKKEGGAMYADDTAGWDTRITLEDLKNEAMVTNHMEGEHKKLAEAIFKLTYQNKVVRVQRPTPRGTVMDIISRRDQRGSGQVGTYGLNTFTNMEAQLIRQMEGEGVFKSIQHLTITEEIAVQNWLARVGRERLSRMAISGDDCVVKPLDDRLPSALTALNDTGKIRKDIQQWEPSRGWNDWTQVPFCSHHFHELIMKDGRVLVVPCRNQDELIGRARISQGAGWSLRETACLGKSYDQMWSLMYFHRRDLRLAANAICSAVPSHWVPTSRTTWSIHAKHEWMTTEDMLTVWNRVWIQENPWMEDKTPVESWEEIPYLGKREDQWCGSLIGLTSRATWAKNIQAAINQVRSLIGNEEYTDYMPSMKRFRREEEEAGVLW

## Oc1ccc(CN2CCN(Cc3ccccc3)CC2)c2cccnc12
Nonstructural protein 1
  IC50: 11.2 µM (active)
[1]
  EC50: > 38 µM (not active)
[2]
  EC50: > 60 µM (not active)
[3]
  EC50: 2.03 µM (active)
[4]
  EC50: > 160 µM (inconclusive)
Cells [5]
  EC50: > 350 µM (not active)
[6]
  IC50: > 20 µM (inactive)
Cells [7]
  EC50: > 350 µM (not active)

## Cc1cc2ccccn2c1C(=O)c1cc([N+](=O)[O-])cc([N+](=O)[O-])c1
Nonstructural protein 1
  IC50: 40.7 µM (active)

## COc1ccc(C(=O)Cn2c(C(C)=O)nc3ccccc32)cc1
Vero
  CC50: 11.5 µM (active)

## N#CC1=C2Sc3ccccc3N2CCCC1=O
H4
  EC50: 19.7 µM (active)
[8]
  EC50: 59 µM (active)
[9]
  EC50: 0.318 µM (active)

## CC(C)(C)NC(=O)C(c1ccncc1)N(Cc1ccco1)C(=O)c1ccc(-c2ccccc2)[nH]1 (centres undefined)
H4
  EC50: 15.2 µM (active)
[8]
  EC50: > 30 µM (not active)
[9]
  EC50: 8.7 µM (active)

## COc1ccc(-n2c(SCC(=O)c3c(N)n(C)c(=O)n(C)c3=O)nc3ccccc32)cc1
BJ [10]
  EC50: > 150 µM (not active)
[11]
  EC50: > 150 µM (not active)
BJ [12]
  EC50: > 150 µM (not active)
BJ [13]
  EC50: > 150 µM (inconclusive)

## O=C(O)c1ccccc1N=N/C(=N/Nc1cc(S(=O)(=O)O)ccc1O)c1ccccc1
Genome polyprotein
  IC50: 19.1 µM (active)
Nonstructural protein 1
  IC50: 21.9 µM (active)
[14]
  AC50: > 20 µM (inactive)

## O=C1c2ccccc2C(=O)c2c1cccc2N1CCN(Cc2ccccc2)CC1
Nonstructural protein 1
  IC50: 7.08 µM (active)

## NC(=O)NC(CC(=O)NNC(=O)c1ccccn1)c1ccccc1Cl (centres undefined)
[6]
  IC50: > 20 µM (inactive)

## COc1cccc(/C=N/NC(=O)C(=O)NCc2cccnc2)c1O
Nonstructural protein 1
  IC50: 8.2 µM (active)

## O=C(NCc1ccco1)c1ccc(Cn2c(=O)c3ccccc3n(Cc3cccc(Cl)c3)c2=O)cc1
[15]
  EC50: 11.8 µM (active)
[16]
  EC50: 16.5 µM (active)
[17]
  AC50: 1.34 µM (active)
[18]
  AC50: 1.78 µM (active)
[19]
  EC50: > 120 µM (not active)
[20]
  AC50: 2.76 µM (active)
[21]
  AC50: 1.83 µM (active)

## Cc1nc2ccccc2c(=O)n1NC(=O)/C=C/c1ccc(Br)cc1
[6]
  IC50: > 20 µM (inactive)

## Cc1ccc(OCCCCNC(C)c2ccccc2)c(C)c1 (centres undefined)
[17]
  AC50: 5.36 µM (active)
[18]
  AC50: 2.94 µM (active)
[20]
  AC50: 5.29 µM (active)
[21]
  AC50: 3.69 µM (active)

## Oc1cccc2c(-c3nn[nH]n3)ccnc12
Nonstructural protein 1
  IC50: 7.24 µM (active)
